pIC50: −log10 of the molar value.
Test system: 328373-195-R-J1-PDC complex spheroids, viability % test/control
Experiment: Anticancer human tumor 328373-195-R-J1-PDC patient-derived head and neck squamous carcinoma cell line growth inhibition [CLK]
Conditions: for pIC50: curve of first compound; for viability, T/C: stronger effect = lower value
Source text: A high-throughput screen of multi-cell type tumor spheroids was designed to identify active combinations of […] and targeted small molecules. Complex spheroids include a stromal component modeled by human endothelial cells (HUVEC) and fibroblasts modeled by human mesenchymal stem cells (MSCs). The concentration ranges selected for each drug and investigational agent were based upon clinically achievable concentrations if the clinical Cmax of the agent was known.
Compounds. The drugs and investigational agents: cirtuvivint (SM08502; NSC835563), CC-671 (NSC850746), vemurafenib (NSC761431), tapotoclax (NSC804041), sotorasib (NSC818433), adagrasib (NSC831453), MRTX-1133 (NSC836407), BAY2416964 (NSC825713), copanlisib (NSC816437), inavolisib (NSC800729), abemaciclib (NSC768073), osimertinib (NSC779217), entinostat (NSC756642), eltanexor (KPT-8602, NSC794443), venetoclax (NSC766270), ceralasertib (NSC777638), bortezomib (NSC756655), olaparib (NSC753686), talazoparib (NSC767125), alisertib (NSC759677), peposertib (NSC802822), gemcitabine (NSC613327), 5-fluorouracil (NSC19893), SN-38 (NSC673596), oxaliplatin (NSC266046), paclitaxel (NSC125973), and doxorubicin (NSC123127), were obtained from the National Cancer Institute (NCI) Developmental Therapeutics Program Chemical Repository. The FDA-approved anticancer drug set is available from the Developmental Therapeutics Program at https://dtp.cancer.gov/organization/dscb/obtaining/available plates.htm. […] The stock solutions were prepared in dimethyl sulfoxide (DMSO, Sigma-Aldrich, St. Louis, MO, cat. D2650), except for the platinum complexes which were prepared in saline (Quality Biological, Gaithersburg, MD, cat. 114-055-101), at 800-fold the tested concentration and stored at -70 degrees C prior to their use. All drugs and investigational agents were tested over a range starting from a high concentration at or near the clinical Cmax and decreasing in half-log increments. If the clinical Cmax for an agent had not been determined, the highest concentration tested was 10 microM.
Cell Culture. All cells were maintained in an incubator at 37 degrees C and 5% CO2 with 95% humidity. The PDC lines were cultured according to standard operating procedures established by the NCI PDMR. Briefly, all PDCs were thawed and cultured in Matrigel-coated flasks prepared with a working solution of 1X Ham's F-12 nutrient mix, without supplementation (Invitrogen, Waltham, MA, cat. 11765054), 100 U/mL penicillin-streptomycin (Invitrogen, cat. 15140122), and 2.5% Matrigel (Corning Inc., Corning, NY, cat. 354248) for the first three passages. The 947758-054-R-J2-PDC line was cultured in 6B/Colon 1A media, which includes advanced DMEM/F-12 (Thermo Fisher Scientific, cat. 12634028), 10 mM HEPES (Thermo Fisher Scientific, cat. 15630080), 1X GlutaMAX supplement (Thermo Fisher Scientific, cat. 35050061), 0.1 mg/mL primocin (InvivoGen, cat. ant-pm-2), 10% defined fetal bovine serum, heat inactivated (HyClone Laboratories Inc., cat. SH30070.03HI), 1.25 mM N-Acetyl-L-cysteine (Sigma-Aldrich, cat. A9165), 10 mM nicotinamide (Sigma-Aldrich, cat. N0636), 1X B-27 supplement (Thermo Fisher Scientific, cat. 17504044), 1X N-2 supplement (Thermo Fisher Scientific, cat. 17502048), and 10 microM Y-27632 dihydrochloride (Tocris Bioscience, cat. 1254). The 876862-298-R-J1-PDC was cultured in 6E media, which includes all 6B/Colon 1A media components plus 50% L-WRN conditioned media (ATCC, cat. CRL-3276), 50 ng/mL recombinant human EGF recombinant protein (hEGF; Thermo Fisher Scientific, cat. PHG0311), 10 ng/mL recombinant human fibroblast growth factor 10 (hGFG-10; PeproTech, cat. 100-26), 1 ng/mL recombinant human fibroblast growth factor 2 (hFGF-2; PeproTech, cat. 100-18B), and 1 µM prostaglandin E2 (PGE2; Tocris, cat. 2296). The 227483-062-R1-J1-PDC line was cultured in Panc media, containing all 6E components except hFGF-2, with the addition of 500 nM SB-431542 (Selleckchem, cat. S1067) and 10 nM gastrin (Tocris, cat. 3006). […]

[1] = second compound 0.0316 µM, first compound 0.0316 µM
[2] = second compound 0.0316 µM, first compound 0.1 µM
[3] = second compound 0.0316 µM, first compound 0.316 µM
[4] = second compound 0.0316 µM, first compound 1 µM
[5] = second compound 0.0316 µM, first compound 3.16 µM
[6] = second compound 0.0316 µM, first compound 10 µM
[7] = second compound 0.1 µM, first compound 0.0316 µM
[8] = second compound 0.1 µM, first compound 0.1 µM
[9] = second compound 0.1 µM, first compound 0.316 µM
[10] = second compound 0.1 µM, first compound 1 µM
[11] = second compound 0.1 µM, first compound 3.16 µM
[12] = second compound 0.1 µM, first compound 10 µM
[13] = second compound 0.316 µM, first compound 0.0316 µM
[14] = second compound 0.316 µM, first compound 0.1 µM
[15] = second compound 0.316 µM, first compound 0.316 µM
[16] = second compound 0.316 µM, first compound 1 µM
[17] = second compound 0.316 µM, first compound 3.16 µM
[18] = second compound 0.316 µM, first compound 10 µM
[19] = second compound 1 µM, first compound 0.0316 µM
[20] = second compound 1 µM, first compound 0.1 µM
[21] = second compound 1 µM, first compound 0.316 µM
[22] = second compound 1 µM, first compound 1 µM
[23] = second compound 1 µM, first compound 3.16 µM
[24] = second compound 1 µM, first compound 10 µM
[25] = second compound 3.16 µM, first compound 0.0316 µM
[26] = second compound 3.16 µM, first compound 0.1 µM
[27] = second compound 3.16 µM, first compound 0.316 µM
[28] = second compound 3.16 µM, first compound 1 µM
[29] = second compound 3.16 µM, first compound 3.16 µM
[30] = second compound 3.16 µM, first compound 10 µM
[31] = second compound 10 µM, first compound 0.0316 µM
[32] = second compound 10 µM, first compound 0.1 µM
[33] = second compound 10 µM, first compound 0.316 µM
[34] = second compound 10 µM, first compound 1 µM
[35] = second compound 10 µM, first compound 3.16 µM
[36] = second compound 10 µM, first compound 10 µM
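Note: spheroids exposed to the agents for 7 days.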

## C=CC(=O)N1CCN(c2nc(=O)n(-c3c(C)ccnc3C(C)C)c3nc(-c4c(O)cccc4F)c(F)cc23)C(C)C1 (centres undefined) + CN1CCN(c2cc(C(=O)Nc3cc4cc(-c5cnn(C)c5)ccc4cn3)ccn2)CC1
Second compound 0.0316 µM
  pIC50: < 5.00
Second compound 0.1 µM
  pIC50: < 5.00
Second compound 0.316 µM
  pIC50: > 7.50
Second compound 1 µM
  pIC50: > 7.50
Second compound 3.16 µM
  pIC50: > 7.50
Second compound 10 µM
  pIC50: > 7.50
[1]
  viability, T/C: 93.6%
[2]
  viability, T/C: 90.1%
[3]
  viability, T/C: 99.3%
[4]
  viability, T/C: 99%
[5]
  viability, T/C: 94%
[6]
  viability, T/C: 77.7%
[7]
  viability, T/C: 80%
[8]
  viability, T/C: 82.7%
[9]
  viability, T/C: 89.3%
[10]
  viability, T/C: 86.6%
[11]
  viability, T/C: 83.5%
[12]
  viability, T/C: 62.9%
[13]
  viability, T/C: 37.6%
[14]
  viability, T/C: 37.7%
[15]
  viability, T/C: 41.1%
[16]
  viability, T/C: 43.2%
[17]
  viability, T/C: 36.2%
[18]
  viability, T/C: 16.5%
[19]
  viability, T/C: 0.2%
[20]
  viability, T/C: 2.35%
[21]
  viability, T/C: 0.89%
[22]
  viability, T/C: 0.26%
[23]
  viability, T/C: 1.99%
[24]
  viability, T/C: 1.88%
[25]
  viability, T/C: 1.99%
[26]
  viability, T/C: 4.29%
[27]
  viability, T/C: 3.33%
[28]
  viability, T/C: 0.14%
[29]
  viability, T/C: 1.88%
[30]
  viability, T/C: 0.7%
[31]
  viability, T/C: 1.21%
[32]
  viability, T/C: 1.7%
[33]
  viability, T/C: 1.33%
[34]
  viability, T/C: 0.55%
[35]
  viability, T/C: 3.67%
[36]
  viability, T/C: 1%

## COC1C=CCC(C)C(C)S(=O)(=O)NC(=O)c2ccc3c(c2)N(CC2CCC21)CC1(CCCc2cc(Cl)ccc21)CO3 (centres undefined) + CN1CCN(c2cc(C(=O)Nc3cc4cc(-c5cnn(C)c5)ccc4cn3)ccn2)CC1
Second compound 0.0316 µM
  pIC50: 5.03
Second compound 0.1 µM
  pIC50: 5.10
Second compound 0.316 µM
  pIC50: > 7.50
Second compound 1 µM
  pIC50: > 7.50
Second compound 3.16 µM
  pIC50: > 7.50
Second compound 10 µM
  pIC50: > 7.50
[1]
  viability, T/C: 96.7%
[2]
  viability, T/C: 99.5%
[3]
  viability, T/C: 108%
[4]
  viability, T/C: 105%
[5]
  viability, T/C: 81.2%
[6]
  viability, T/C: 48%
[7]
  viability, T/C: 77.3%
[8]
  viability, T/C: 87%
[9]
  viability, T/C: 82.2%
[10]
  viability, T/C: 80.7%
[11]
  viability, T/C: 73.5%
[12]
  viability, T/C: 44%
[13]
  viability, T/C: 36%
[14]
  viability, T/C: 35.3%
[15]
  viability, T/C: 37%
[16]
  viability, T/C: 32.4%
[17]
  viability, T/C: 29.3%
[18]
  viability, T/C: 13.3%
[19]
  viability, T/C: 0.21%
[20]
  viability, T/C: 2.53%
[21]
  viability, T/C: 2.21%
[22]
  viability, T/C: 1.57%
[23]
  viability, T/C: 0.27%
[24]
  viability, T/C: 1.2%
[25]
  viability, T/C: 2.24%
[26]
  viability, T/C: 3.21%
[27]
  viability, T/C: 2.04%
[28]
  viability, T/C: 1.78%
[29]
  viability, T/C: 1.66%
[30]
  viability, T/C: 1.86%
[31]
  viability, T/C: 4.14%
[32]
  viability, T/C: 0.77%
[33]
  viability, T/C: 1.41%
[34]
  viability, T/C: 2.69%
[35]
  viability, T/C: 1.19%
[36]
  viability, T/C: 0.32%

— PubChem BioAssay AID2060620 (Molecular Pharmacology Branch, DTP, NCI, 2025)
